Values joined by “and” are separate entries in the source; they are usually repeats but may differ in a detail not shown here. Equal entries are not always repeated. “Also recorded” adds a separate entry of the source.
Assays:
[1] = test system: acetylcholine-mediated AF; assay: Electrical re-induction of AF after AF termination in isolated canine right atrial preparations
Method: A well-established acetylcholine (ACh)-mediated non-self-terminating (persistent) AF experimental model was used in the current study.^4 AF was induced by either delivering a single premature stimulus or by rapid pacing (CLs=40-80 ms, for 2-5 seconds). The efficacy and time course for flecainide to cardiovert AF (induced at 4 mM potassium) was studied at 4 mM (baseline) and at 5, 6, and 8 mM of potassium concentration ([K^+]0). Sustained AF (here defined as lasting >1 hour) was induced in 100% experiments in the presence of 4 mM [K^+]. 5-7 minutes after non-self-terminating AF was first introduced at 4 mM [K^+]0, flecainide was added to the Tyrode's perfusate containing either 4 mM [K^+]0 or with a concomitant increase in potassium concentration (to 5, 6, or 8 mM). Additionally, the capability of elevated potassium (5, 6, and 8 mM) alone to terminate AF was investigated. In these experiments, sustained AF was first induced at 4 mM [K^+]0 and 5-7 minutes later potassium concentrations were increased (to 5, 6, or 8 mM). To mimic hypokalemia, AF termination efficacy of flecainide was tested at 3 mM [K^+]0. If AF was not terminated by the tested conditions in 45 minutes, the AF was considered as “non-terminating”. In the experiments in which AF was cardioverted by tested conditions tested, electrical re-induction of AF was attempted within 1-5 minutes after AF termination (≥5 attempts in ≥2 atrial locations).

[2] = test system: ventricles; assay: Electrophysiological parameters (APD, ERP, DTE) in ventricles of isolated arterially-perfused canine preparations; conditions: CL 500 ms
Method: (§1) Experiments were performed using isolated arterially-perfused canine preparations perfused with Tyrode's solution containing (in mM): NaCl 129, KCl 4, NaH2PO4 0.9, NaHCO3 20, CaCl2 1.8, MgSO4 0.5, glucose 5.5, insulin lunit/liter, bubelled with 95% O2 and 5% CO2. pH=7.4. Preparations consisting of the right atrium with a rim of right ventricle (1.0-2.0 cm) were isolated from the canine hearts (FIG. 1). The ostium of the right coronary artery was cannulated with polyethylene tubing, and the preparations were perfused with cold Tyrode's solution (8°-12° C.) containing 8.5 [K^+]0. With continuous coronary perfusion, all ventricular branches of the right coronary artery were immediately clamped with metal clips (1.5×10 mm; Kent Scientific Corp., Torrington, CT). The total time from excision of the heart to cannulation and perfusion of the artery was 4 minutes. […] coronary branches were ligated using silk thread. The preparations were placed in a temperature-controlled bath (8×6×4 cm) and perfused at a rate of 10-15 mL/min using Tyrode's solution. The temperature was maintained at 37° C.±0.5° C. (PolyStat; Cole Parmer Instrument, IL). The perfusate was delivered to the artery by a roller pump (MasterFlex L/S, Cole Parmer Instrument). An air trap was used to avoid bubbles in the perfusion line.
(§2) Transmembrane action potential (AP) recordings (sampling rate 41 kHz) were obtained from the right atrium and ventricle using floating glass microelectrodes (10-25 MΩ DC resistance). Glass microelectrodes were connected to a high-input impedance intracellular amplifier (Electro-705; World Precision Instruments, Sarasota, FL). A pseudo-electrocardiogram (ECG) was recorded using two electrodes consisting of Ag/AgCl half cells placed in the Tyrode's solution bathing the preparation, 1.0 to 1.2 cm from opposite ends of the atrial coronary-perfused preparations (FIG. 1). The signals were amplified, digitized, and analyzed (Cambridge Electronic Design, Cambridge, England). Effective refractory period (ERP) was measured by delivering premature stimuli after every 10th basic beat at a pacing cycle length (CL) of 500 ms. The diastolic threshold of excitation (DTE) was determined by increasing stimulus intensity in 0.01 mA steps starting from 0.1 mA, until a steady 1:1 activation was achieved. Post-repolarization refractoriness (PRR) was recognized when ERP exceeded an action potential duration at 90% repolarization (APD90) in the ventricle and action potential duration at 70% repolarization (APD70) in atria. Ventricular ERP coincides with APD90, whereas atrial ERP generally coincides with APD70.^4 The electrophysiological measurements were performed following at least 20 min of perfusion with flecainide and 5 min with elevated potassium concentrations. The electrophysiological measurements were obtained at a CL of 500 ms.

[3] = test system: atria; assay: Electrophysiological parameters (APD, ERP, PRR, DTE) in atria of isolated arterially-perfused canine preparations
Method: as §1, §2

[4] = test system: ACh-mediated AF; conditions: elevation of [K+]0 from 4 to 6-8 mM; isolated pig atria; cited from earlier work
[5] = test system: acetylcholine-mediated AF; assay: AF cardioversion in canine acetylcholine-mediated AF model (isolated coronary-perfused right atrial preparations); conditions: for AF cardioversion (atria cardioverted / tested): flecainide 1.5 μM
Method: This investigation conforms with the Guide for Care and Use of Laboratory Animals. Hearts from purpose-bred adult male Beagle dogs (10-16 kg, 10-19 months old) were obtained from Envigo (Denver, PA). Dogs were sedated with ketamine (10 mg/kg, intramuscularly [IM]) and xylazine (2 mg/kg, IM). Prior to euthanasia with Euthasol solution (pentobarbital sodium and phenytoin sodium; 0.22 ml/kg, intravenously [IV]), heparin (human pharmaceutical grade, 1,000 U/kg, IV) was administered. The heart was then isolated via a left thoracotomy. Retrograde aortic perfusion of the hearts with ice-cold cardioplegic solution (modified Krebs-Henseleit solution [K-H]; 16 mM KCl) was immediately performed to clear the coronary vasculature of blood. The hearts were then placed in a sealed container containing ice-cold cardioplegic solution and transported to our institution via a private courier in an insulated package surrounded by icepacks.
as §1
A well-established acetylcholine (ACh)-mediated non-self-terminating (persistent) AF experimental model was used in the current study.^4 AF was induced by either delivering a single premature stimulus or by rapid pacing (CLs=40-80 ms, for 2-5 seconds). The efficacy and time course for flecainide to cardiovert AF (induced at 4 mM potassium) was studied at 4 mM (baseline) and at 5, 6, and 8 mM of potassium concentration ([K^+]0). Sustained AF (here defined as lasting >1 hour) was induced in 100% experiments in the presence of 4 mM [K^+]. 5-7 minutes after non-self-terminating AF was first introduced at 4 mM [K^+]0, flecainide was added to the Tyrode's perfusate containing either 4 mM [K^+]0 or with a concomitant increase in potassium concentration (to 5, 6, or 8 mM).
Additionally, the capability of elevated potassium (5, 6, and 8 mM) alone to terminate AF was investigated. In these experiments, sustained AF was first induced at 4 mM [K^+]0 and 5-7 minutes later potassium concentrations were increased (to 5, 6, or 8 mM). To mimic hypokalemia, AF termination efficacy of flecainide was tested at 3 mM [K^+]0. If AF was not terminated by the tested conditions in 45 minutes, the AF was considered as “non-terminating”. In the experiments in which AF was cardioverted by tested conditions tested, electrical re-induction of AF was attempted within 1-5 minutes after AF termination (≥5 attempts in ≥2 atrial locations).
Overall, 41 right atrioventricular preparations isolated from 41 canine hearts were used in the study, with 46 experiments investigating AF cardioversion and 11 experiments investigating electrophysiological parameters in atria and ventricles. […]

[6] = test system: recent-onset AF; conditions: flecainide via oral inhalation; patients with recent-onset AF; cited from earlier work
[7] = [K+]0 from 4 to 6 mM, CL 500 ms
[8] = after cardioversion by flecainide and elevated [K+]0 (5-8 mM)
[9] = after cardioversion by flecainide at [K+]0 4 mM
[10] = flecainide 1.5 μM added at [K+]0 6 mM, CL 500 ms
[11] = flecainide at [K+]0 4 mM, CL 500 ms

SMILES: [K+] [[K^+]0]
- Duration of re-induced AF ([1]; 6 mM [K+]0 alone, in one of two experiments): 20 min
- AF inducible after termination (atria) ([1]; 8 mM [K+]0 alone): 4/4
- Duration of re-induced AF episodes ([1]; 8 mM [K+]0 alone): ≤ 26 s
- AF/AT inducibility after termination ([1]; two experiments in which 6 mM [K+]0 alone terminated AF): readily inducible in both
- DTE in ventricles ([2]; 6 mM [K+]0 vs 4 mM): not significantly affected
- APD in ventricles ([2]; [K+]0 from 4 to 6 mM): significantly abbreviated
- ERP in ventricles ([2]; [K+]0 from 4 to 6 mM): significantly abbreviated
- DTE in atria ([3]; 6 mM [K+]0 vs 4 mM, CL 500 ms): not significantly affected
- APD in atria [3, 7]: abbreviated
- ERP in atria [3, 7]: significantly prolonging
- Post-repolarization refractoriness (PRR) [3, 7]: atrial-selective induction
- AF cardioversion (atria cardioverted / tested) [4]: 3/4
- AF terminated, % of experiments / atria ([5]; no flecainide, [K+]0 from 4 to 8 mM): 100%
- AF termination (atria terminated / tested) ([5]; no flecainide, [K+]0 increased from 4 to 5 mM): did not terminate and 0/5 and did not cardiovert
- AF termination (atria terminated / tested) ([5]; no flecainide, [K+]0 increased from 4 to 6 mM): 2/6
- AF termination (atria terminated / tested) ([5]; no flecainide, [K+]0 increased from 4 to 8 mM): 4/4

SMILES: O=C(NCC1CCCCN1)c1cc(OCC(F)(F)F)ccc1OCC(F)(F)F (stereo not shown) [flecainide]
- AF/AT inducibility after cardioversion [1, 8]: either not inducible or induced for a very brief episode; also recorded: either not inducible or induced for very brief episodes
- Duration of re-induced AF/AT episodes [1, 8]: < 100 s
- Duration of re-induced AF/AT episodes, in most cases ([1]; after cardioversion by flecainide and elevated [K+]0 (5-8 mM), in most cases): < 10 s
- AF or atrial tachycardia inducible after cardioversion (preparations) [1, 9]: 3/3
- Duration of re-induced AF/AT episodes [1, 9]: ≤ 300 s
- Duration of re-induced AF episodes ([1]; flecainide at 3 mM [K+]0 (hypokalemia)): ≤ 1860 s
- AF re-induction after termination ([1]; flecainide at 3 mM [K+]0 (hypokalemia), the only atria terminated): readily re-induced
- ERP in ventricle ([2]; flecainide 1.5 μM added at [K+]0 6 mM): prolongation
- APD in ventricles ([2]; flecainide at [K+]0 4 mM): no significant change
- Depression of excitability, atria vs ventricles ([3]; combined flecainide and elevated [K+]0 (6 mM)): atrial predominant depression of excitability; also recorded: atrial preferential depression of excitability
- ERP in atria [3, 10]: much more pronounced in the atria
- Post-repolarization refractoriness (PRR) [3, 10]: atrial predominant development
- DTE ([3]; flecainide alone at [K+]0 4 mM, CL 500 ms): moderate atrial predominant increase
- APD in atria [3, 11]: no significant change
- ERP in atria [3, 11]: substantial lengthening
- DTE ([3]; flecainide in the presence of 6 mM [K+]0, CL 500 ms): large atrial-selective increase
- AF cardioversion (atria cardioverted / tested) ([5]; [K+]0 3 mM (simulated hypokalemia)): 1/6
- AF cardioversion (atria cardioverted / tested) ([5]; [K+]0 4 mM, ACh 0.5 μM): moderately effective
- AF cardioversion (atria cardioverted / tested) ([5]; [K+]0 4 mM, ACh 0.5 μM, listed as Flecainide): 3/6
- AF cardioversion (atria cardioverted / tested) ([5]; [K+]0 elevated to 5 mM): highly effective
- AF cardioversion (atria cardioverted / tested) ([5]; [K+]0 elevated to 5 mM, listed as Flecainide): 5/5
- AF cardioversion (atria cardioverted / tested) ([5]; [K+]0 elevated to 6 mM): highly effective
- AF cardioversion (atria cardioverted / tested) ([5]; [K+]0 elevated to 6 mM, listed as Flecainide): 5/5
- AF cardioversion (atria cardioverted / tested) ([5]; [K+]0 elevated to 8 mM): highly effective
- AF cardioversion (atria cardioverted / tested) ([5]; [K+]0 elevated to 8 mM, listed as Flecainide): 4/4
- Time to conversion (time course of flecainide-mediated AF termination) ([5]; flecainide, elevation of [K+]0 from 4 to 8 mM vs 4 mM): abbreviated
- Patients restored to sinus rhythm [6]: approximately 50%

Reference: patent US20260061000A1, “COMPOSITIONS AND METHODS FOR THE TREATMENT OF CARDIAC ARRHYTHMIAS, INCLUDING ATRIAL FIBRILLATION” (Lankenau Institute for Medical Research, priority 2022, published 2026)
